Legend:
[1] = system: Human MSCs; test: Western blotting of tyrosine phosphorylation of cellular proteins; type: cell-based; conditions: TGF beta inhibition added to standard transgeneration conditions
Source text: TGF signaling involves a series of serine/threonine phosphorylation events, and its regulation is related to the activity of the MAPK-MEK-ERK pathway, a receptor tyrosine kinase (RTK) activated pathway. Thus, in order to address potential crosstalk involving tyrosine phosphorylation-dependent pathways Applicants investigated the effect of Applicants' different protocols on tyrosine phosphorylation of multiple cellular proteins by western blotting.

[2] = system: CD34+ OE-MSC-derived cells; test: Hematopoietic colony forming assays; type: cell-based, human; conditions: CD34+ cells accumulated during chronic inhibition of TGFβ
Procedure: Hematopoietic clonogenic assays were performed in 35-mm low adherent plastic dishes (Stem Cell Technologies, Vancouver, BC, Canada) using 1.1 ml/dish of methylcellulose semisolid medium (MethoCult H4434 classic, Stem Cell Technologies) according to the manufacturer's instructions. Briefly, enriched CD34+ OE-MSC-derived cells were sorted and immediately plated at various densities: 1.5×10^3/ml, 3×10^3/ml and 6×10^3/ml. All assays were performed in duplicate. Colony-forming units (CFU) and Burst-forming units (BFU) were scored after 7 to 14 days of incubation according to their colony morphology as erythroid (CFU-E and BFU-E), granulocyte, erythroid, macrophage, megakaryocyte (CFU-GEMM), granulocyte-macrophage (CFU-GM), and macrophage (CFU-M).

[3] = system: Human MSCs; test: Flow cytometry surface staining (CD34, CD45, CD43, CD133) of MSCs undergoing hematopoietic transdetermination; type: cell-based
Source text: The following antibodies were used for flow cytometry and western blotting experiments respectively: mouse anti-human CD34-APC (130-046-703, Miltenyi), mouse anti-human CD45-FITC (130-080-202, Miltenyi), mouse anti-human CD133/2 (293C3)-PE (130-090-853, Miltenyi), mouse anti-human CD43-FITC (560978, BD biosciences), mouse APC isotype control (555751, BD biosciences), mouse FITC isotype control (555748, BD biosciences), The TGFβRI SB431542 (S4317, Sigma-Aldrich) and MEK/ERK U0126 (U120, Sigma-Aldrich) inhibitors were diluted in DMSO accordingly to the manufacturers' instruction and used at a final concentration of 25 and 10 μM respectively during the duration of the experiments with media changes every second day unless otherwise stated. Equal concentration of the solvent alone was used as a negative control.
Human OE-MSC and MSC-AT cells (passage 7) were infected (day 0) with pMX-based retroviruses by spinfection of the cells at 1850 rpm for 1 hour in the presence of polybrene (4 μg/ml). Cells were maintained in the retroviruses-containing media for 12 hours and then the media was removed and replaced by the cell-specific culture medium. Twenty four hours after the first infection (day 1), a second round of infection was performed. The day after (day 2), cells were maintained in their respective media for 24 hours before being switched to a Wicell media containing DMEM/F12 (Invitrogen) supplemented with 20% Knockout Serum Replacement (Invitrogen), 1 mM L-glutamine, 0.1 mM non-essential aminoacids, […] β-mercaptoethanol and 10 ng/ml bFGF.
Human MSCs undergoing hematopoietic transdetermination were harvested at the indicated time points. Cells were washed once with PBS and further incubated with the corresponding antibodies in the presence of FACS blocking buffer (1×PBS/10% FCS) for 1 hour on ice in the absence of light. After incubation, cells were washed three times with 1 ml FACS blocking buffer and resuspended in a total volume of 200 μl prior to analysis. A minimum of 10,000 living cells were analyzed.
2.5 μg of recombinant human Sox2-TAT (110-03T, Peprotech) was added to the culture media every 12 hours prior to analysis of transdetermination.

[4] = system: Human MSCs; test: Real time PCR (RT-PCR) analysis of hematopoietic and pluripotency marker mRNA; type: cell-based
Procedure: Total RNA was isolated using Trizol Reagent (Invitrogen) according to the manufacturer's recommendations. 1 μg of DNAse1 (invitrogen) treated total RNA was used for cDNA synthesis using the SuperScript II Reverse Transcriptase kit for RT-PCR (Invitrogen). Real-time PCR was performed using the SYBR-Green PCR Master mix (Applied Biosystems). The levels of expression of respective genes were normalized to corresponding GAPDH values and are shown as fold change relative to the value of the control sample. All the samples were done in triplicate. The sequences correspond to SEQ ID NOs:7-68, and are listed in order, i.e., SEQ ID NO:7 (OCT4 endogenous 5′ oligo), SEQ ID NO:8 (OCT4 endogenous 3′oligo), SEQ ID NO:9 (NANOG 5′ oligo), etc.

Row | Structure (SMILES) | tyrosine phosphorylation of cellular proteins [1] | multilineage potential of sorted CD34+ cells [2] | generation of CD34+ cells ([3]; Sox2 transduction in combination with TGFβRI inhibitor (FIG. 4C)) | newly generated CD45+ cells ([3]; Sox2 transduction in combination with TGFβRI inhibitor, days 2-8 (FIG. 4D)) | generation of CD34+CD45+ and CD45+ cell populations ([3]; in combination with Sox2 transduction, 4 days of transdetermination (FIG. 5E)) | CD34+CD45+ cells ([3]; inhibition of the TGF beta pathway alone during ten days, compared to DMSO control, 25 μM) | CD34+ cells ([3]; inhibition of the TGFβ pathway, no Sox2 transduction, 25 μM) | CD34+ cells ([3]; long-term inhibition of TGF beta pathway during a one month period in culture, compared to standard protocol) | endogenous Sox2 and Oct4 expression ([4]; chronic inhibition of TGFβ signaling alone (FIG. 4B)) | HPC-related markers at the mRNA level ([4]; chronic inhibition of TGFβ signaling alone, days 2-7 (FIG. 5C)) | early hematopoietic markers GATA2, Runx1, CD43 and CD41 ([4]; inhibition of TGF signaling) | endogenous Sox2 expression ([4]; inhibition of TGF signaling (Example 9)) | early CD34+ progenitors ([3]; chronic inhibition of ERK alone, no ectopic Sox2, 10 μM)
1 | NC(=O)c1ccc(-c2nc(-c3ccc4c(c3)OCO4)c(-c3ccccn3)[nH]2)cc1 [SB431542] | further enhances | retain multilineage potential | does not impair | significant reduction | significantly abolishes | around 10% | 10-25% | up to 75% | sufficient to upregulate | significant upregulation | downregulation | downregulation | 
2 | N#CC(=C(/N)Sc1ccccc1N)/C(C#N)=C(\N)Sc1ccccc1N [U0126] |  |  |  |  |  |  |  |  |  |  |  |  | up to 35%

Source: patent US20130309209A1, “FORMATION OF HEMATOPOIETIC PROGENITOR CELLS FROM MESENCHYMAL STEM CELLS” (Center for Regenerative Medicine of Barcelona, priority 2010, published 2013)
